pIC50: −log10 of the molar value. Starred links: 1 amine or outer side, 2 acyl side, 3 side chain; linkers in the order of their positions; H or OH if unused. Positions of bridges follow the written chain, without caps; N, C: chain ends. Non-standard residues stand in square brackets, D forms with d. Residues, ends and D or L forms follow the SMILES beside them. Triazole bridges read from a SMILES are 1,4-linked. Phe(4-COOH) = N[C@@H](Cc1ccc(C(=O)O)cc1)C(=O)O; Trp(5-F) = N[C@@H](Cc1c[nH]c2ccc(F)cc12)C(=O)O; Bip = N[C@@H](Cc1ccc(-c2ccccc2)cc1)C(=O)O; Dip = N[C@H](C(=O)O)C(c1ccccc1)c1ccccc1; Lys(N3) = [N-]=[N+]=NCCCC[C@H](N)C(=O)O; Pro(4S-NH2) = N[C@@H]1CN[C@H](C(=O)O)C1; X36 = O=C([C@H](CC1=NC=NC1)N[*:1])[*:2]; X4 = O=C(CCSCc1cccc(CSCCN[*:1])c1)[*:2]; Orn(N3) = [N-]=[N+]=NCCC[C@H](N)C(=O)O; mXylylene = c1cc(C[*:1])cc(C[*:2])c1; X47 = O=C(O)CCCCC(N[*:1])C(=O)[*:2]; Val(3-OH) = CC(C)(O)[C@H](N)C(=O)O; X39 = c1cc(CCSCN[*:2])cc(C[*:1])c1; X35 = COc1cc(C[*:1])cc(C[*:2])c1; hLys = NCCCCC[C@H](N)C(=O)O; αMeP = C[C@@]1(C(=O)O)CCCN1; dPra = C#CC[C@@H](N)C(=O)O; Mpa = O=C(O)CCS
How the values were obtained:
[1] = target: human PCSK9 / human LDLR EGFa domain interaction (Homo sapiens (Human), UniProt Q8NBP7); assay: TR-FRET assay of inhibition of the PCSK9-LDLR protein-protein interaction; type: binding; conditions: TR-FRET, 20 nM human PCSK9, 20 nM human LDLR EGFa domain, 2 hours room temperature; read-out: IC50
In short: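 Biotinylated PCSK9 (20 nM) and His-tagged LDLR EGFa domain (20 nM) were incubated 2 h at room temperature with 5 nM Ulight-streptavidin and 5 nM Eu-anti-His in HEPES/NaCl/CaCl2 buffer with 0.01% BSA and 0.01% P20. TR-FRET was read; half-maximal inhibitory concentrations came from 4-parameter dose-response fits.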

PCSK9 = PCSK9 (Homo sapiens (Human), UniProt Q8NBP7); assay: PCSK9 Alexa FRET Standard assay (displacement of AlexaFluor647 tagged cyclic peptide Reagent A); type: binding; conditions: PCSK9 Alexa FRET Standard assay, 0.5 nM PCSK9, 20 nM AF cyclic peptide Reagent A; read-out: IC50
In short: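 TR-FRET displacement: 0.5 nM biotinylated PCSK9 with 1.25 nM Strep-Eu and 20 nM AlexaFluor-tagged cyclic peptide (final) in 50 mM HEPES pH 7.4, 0.15 M NaCl, 5 mM CaCl2, 0.01% BSA, 0.01% P20, ≥2 h at room temperature. IC50 from sigmoidal fit, converted to Ki via peptide KD; falling Eu counts flagged false positives.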

PCSK9, sequence (Q8NBP7 153-692): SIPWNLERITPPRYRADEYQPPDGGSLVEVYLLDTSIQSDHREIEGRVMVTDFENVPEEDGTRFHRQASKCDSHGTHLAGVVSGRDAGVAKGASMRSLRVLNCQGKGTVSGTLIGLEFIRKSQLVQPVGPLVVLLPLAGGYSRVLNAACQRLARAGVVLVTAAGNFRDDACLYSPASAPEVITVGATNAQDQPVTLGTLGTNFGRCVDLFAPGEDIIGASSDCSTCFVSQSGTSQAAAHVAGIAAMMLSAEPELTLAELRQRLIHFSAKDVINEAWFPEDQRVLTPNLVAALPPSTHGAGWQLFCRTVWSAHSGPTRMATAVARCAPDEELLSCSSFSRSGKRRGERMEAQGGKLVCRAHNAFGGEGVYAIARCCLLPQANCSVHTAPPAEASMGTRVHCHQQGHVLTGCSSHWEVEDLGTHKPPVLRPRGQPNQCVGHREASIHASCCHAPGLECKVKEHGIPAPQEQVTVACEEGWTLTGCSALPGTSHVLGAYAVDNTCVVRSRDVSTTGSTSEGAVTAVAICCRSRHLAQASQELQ
human PCSK9 / human LDLR EGFa domain interaction, sequence (Q8NBP7 153-692): as above
human PCSK9 / human LDLR EGFa domain interaction, sequence (Q8NBP7 31-152 partner): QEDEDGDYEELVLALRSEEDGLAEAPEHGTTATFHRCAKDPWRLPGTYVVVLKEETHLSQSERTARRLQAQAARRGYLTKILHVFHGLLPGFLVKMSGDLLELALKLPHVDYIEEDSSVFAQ

SMILES	pIC50 [1]	pIC50 (PCSK9)
CC(=O)N[C@@H]1Cc2cn(nn2)CCCC[C@@H](C(N)=O)NC(=O)[C@]2(C)CCCN2C(=O)[C@H](Cc2ccc(O)cc2)NC(=O)[C@H](Cc2cnc[nH]2)NC(=O)[C@H](CC(=O)O)NC(=O)[C@H](Cc2c[nH]c3ccc(F)cc23)NC(=O)[C@H](Cc2c[nH]c3ccc(F)cc23)NC(=O)CNC1=O [Compound 336] (Ac-[dPra]G[Trp(5-F)][Trp(5-F)]DHY[αMeP][Lys(N3)]-NH2; triazole 1-9)	7.00 to 10.00	6.00 to 7.00
NCCCC[C@@H]1NC(=O)CCSCc2cccc(c2)CSC[C@@H](C(N)=O)NC(=O)[C@@H]2CCCN2C(=O)[C@H](Cc2ccc(O)cc2)NC(=O)[C@H](Cc2c[nH]cn2)NC(=O)[C@H](CC(=O)O)NC(=O)[C@H](Cc2c[nH]c3ccc(F)cc23)NC(=O)[C@H](Cc2ccc(-c3ccccc3)cc2)NC(=O)CNC1=O [Compound 210] ([Mpa]KG[Bip][Trp(5-F)]DHYPC-NH2; linker 1-10 via mXylylene)	4.92 to 6.00	4.92 to 6.00
COc1ccc(C[C@@H]2NC(=O)[C@H](Cc3cnc[nH]3)NC(=O)[C@H](CC(=O)O)NC(=O)[C@H](Cc3c[nH]c4ccc(F)cc34)NC(=O)[C@H](Cc3c[nH]c4ccc(F)cc34)NC(=O)[C@@H](C)NC(=O)[C@H](CCCCN)NC(=O)[C@@H](NC(C)=O)CCCCCNC(=O)c3ccc(cc3)C[C@@H](C(N)=O)NC(=O)[C@]3(C)CCCN3C2=O)cc1 [Compound 393] (Ac-[hLys]K[dA][Trp(5-F)][Trp(5-F)]DHY(Me)[αMeP][Phe(4-COOH)]-NH2; lactam 1-10)	7.00 to 10.00	6.00 to 7.00
COc1ccc(C[C@@H]2NC(=O)[C@H](Cc3cnc[nH]3)NC(=O)[C@H](CC(=O)O)NC(=O)[C@H](Cc3c[nH]c4ccc(F)cc34)NC(=O)[C@H](Cc3c[nH]c4ccc(F)cc34)NC(=O)[C@@H](C)NC(=O)[C@H](NC(C)=O)Cc3cn(nn3)-c3ccc(cc3)C[C@@H](C(N)=O)NC(=O)[C@]3(C)CCCN3C2=O)cc1 [Compound 381]	6.00 to 7.00	4.92 to 6.00

The next lines start with the values.

pIC50 [1]	pIC50 (PCSK9)	SMILES
7.00 to 10.00	6.00 to 7.00	COc1ccc(C[C@@H]2NC(=O)C(CCCCC(=O)O)NC(=O)[C@@H]3C[C@H](N)CN3C(=O)[C@H](Cc3c[nH]c4ccc(F)cc34)NC(=O)[C@H](Cc3c[nH]c4ccc(F)cc34)NC(=O)[C@@H](C)NC(=O)[C@H](CCCN=[N+]=[N-])NC(=O)CCSCc3cccc(c3)CCSCNC(=O)[C@]3(C)CCCN3C2=O)cc1 (stereo partly drawn) [Compound 388] ([Mpa][Orn(N3)][dA][Trp(5-F)][Trp(5-F)][Pro(4S-NH2)][X47]Y(Me)[αMeP]; linker 1-C via X39)
6.00 to 7.00	6.00 to 7.00	CC(C)(O)[C@@H]1NC(=O)[C@@H]2CCCN2C(=O)[C@H](Cc2c[nH]c3ccc(F)cc23)NC(=O)[C@H](Cc2c[nH]c3ccc(F)cc23)NC(=O)CNC(=O)[C@H](CCCCN)NC(=O)CCSCc2cccc(c2)CSC[C@@H](C(N)=O)NC(=O)[C@]2(C)CCCN2C(=O)[C@H](Cc2ccc(O)cc2)NC1=O [Compound 048] ([Mpa]KG[Trp(5-F)][Trp(5-F)]P[Val(3-OH)]Y[αMeP]C-NH2; linker 1-10 via mXylylene)
7.00 to 10.00	7.00 to 9.96	COc1ccc(C[C@@H]2NC(=O)[C@H](C)NC(=O)[C@@H]3CCCCNc4cc(ccn4)C[C@H](NC(=O)[C@@H](C)NC(=O)[C@H](C)NC(=O)CCSCc4cccc(c4)CSC[C@@H](C(N)=O)NC(=O)[C@]4(C)CCCN4C2=O)C(=O)N[C@@H](Cc2c[nH]c4ccc(F)cc24)C(=O)N3)cc1 [Compound 515]
4.92 to 6.00	4.30 to 4.68	COc1ccc(C[C@@H]2NC(=O)[C@H]([C@@H](C)O)NC(=O)[C@@H]3CCCN3C(=O)[C@H](Cc3c[nH]c4ccc(F)cc34)NC(=O)[C@H](Cc3c[nH]c4ccc(F)cc34)NC(=O)[C@@H](C)NC(=O)[C@H](CCCCN)NC(=O)CCSCc3cc(cc(OC)c3)CSC[C@@H](C(N)=O)NC(=O)[C@]3(C)CCCN3C2=O)cc1 [Compound 063] ([Mpa]K[dA][Trp(5-F)][Trp(5-F)]PTY(Me)[αMeP]C-NH2; linker 1-10 via X35)
7.00 to 10.00	7.00 to 9.96	COc1ccc(C[C@@H]2NC(=O)[C@H](CC3=NC=NC3)NC(=O)[C@H](CC(=O)O)NC(=O)[C@H](Cc3c[nH]c4ccc(F)cc34)NC(=O)[C@H](C(c3ccccc3)c3ccccc3)NC(=O)[C@@H](C)NC(=O)[C@H](CCCCN)NC(=O)CCSCc3cccc(c3)CSCCNC(=O)[C@]3(C)CCCN3C2=O)cc1 [Compound 275] (cyclo(D[X36]Y(Me)[αMeP][X4]K[dA][Dip][Trp(5-F)]))
